Assays:
bedstraw = test: Test B pre/postemergence bedstraw; format: in vivo, Galium aparine; conditions: Preemergence
Summary of the method: (§1)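 Response is a visual 0-to-10 score relative to untreated plants, where 0 means no effect and 10 means complete control, taken twelve to sixteen days after application. Treatments went onto soil at planting and onto foliage of 1- to 4-leaf plants, using a surfactant-containing non-phytotoxic solvent.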

blackgrass = test: Test B pre/postemergence blackgrass; format: in vivo, Alopecurus myosuroides
Summary of the method: as §1

surinam grass = test: Test B pre/postemergence surinam grass; format: in vivo, Brachiaria decumbens
Summary of the method: as §1

cocklebur = test: Test B pre/postemergence cocklebur; format: in vivo, Xanthium strumarium
Summary of the method: as §1

corn = test: Test B pre/postemergence corn; format: in vivo, Zea mays
Summary of the method: as §1

crabgrass = test: Test B pre/postemergence crabgrass; format: in vivo, Digitaria sanguinalis
Summary of the method: as §1

giant foxtail = test: Test B pre/postemergence giant foxtail; format: in vivo, Setaria faberii
Summary of the method: as §1

morningglory = test: Test B pre/postemergence morningglory; format: in vivo, Ipomoea hederacea
Summary of the method: as §1

pigweed = test: Test B pre/postemergence pigweed; format: in vivo, Amaranthus retroflexus; conditions: for Plant response rating, Redroot pigweed: Postemergence
Summary of the method: as §1

rape = test: Test B pre/postemergence rape; format: in vivo, Brassica napus
Summary of the method: as §1

soybean = test: Test B pre/postemergence soybean; format: in vivo, Glycine max; conditions: for Plant response rating, Soybean: Postemergence
Summary of the method: as §1

sugar beet = test: Test B pre/postemergence sugar beet; format: in vivo, Beta vulgaris
Summary of the method: as §1

velvetleaf = test: Test B pre/postemergence velvetleaf; format: in vivo, Abutilon theophrasti; conditions: for Plant response rating, Velvetleaf: Postemergence
Summary of the method: as §1

wheat = test: Test B pre/postemergence wheat; format: in vivo, Triticum aestivum; conditions: for Plant response rating, Wheat: Postemergence
Summary of the method: as §1

wild oat = test: Test B pre/postemergence wild oat; format: in vivo, Avena fatua; conditions: for Plant response rating, Wild oats: Postemergence
Summary of the method: as §1

purple nutsedge = test: Test B pre/postemergence purple nutsedge; format: in vivo, Cyperus rotundus
Summary of the method: as §1

[1] = Rate 500 g/ha, scale of 0 to 10 where 0 is no effect and 10 is complete control
[2] = Postemergence, Rate 62 g/ha, scale of 0 to 10, 0 is no effect, 10 is complete control
[3] = Postemergence, Rate 125 g/ha, scale 0 to 10, 0 is no effect, 10 is complete control
[4] = Postemergence, Rate 500 g/ha, scale of 0 to 10 where 0 is no effect and 10 is complete control
[5] = Preemergence, Rate 62 g/ha, scale 0 to 10 (0 no effect, 10 complete control)
[6] = Preemergence, Rate 125 g/ha, scale 0 to 10, 0 is no effect, 10 is complete control
[7] = Preemergence, Rate 500 g/ha, scale of 0 to 10 where 0 is no effect and 10 is complete control
[8] = Rate 250 g/ha, Postemergence, scale of 0 to 10 where 0 is no effect and 10 is complete control
[9] = Rate 250 g/ha, scale of 0 to 10 where 0 is no effect and 10 is complete control

SMILES: CC(Cl)=CCn1c(=O)on(C(=O)N(c2ccccc2)C(C)C)c1=O [Compound 573]
- Bedstraw plant response rating (bedstraw; Rate 62 g/ha, scale 0 to 10 (0 no effect, 10 complete control)): 0
- Bedstraw plant response rating (bedstraw; Rate 125 g/ha, scale 0 to 10, 0 is no effect, 10 is complete control): 0
- Bedstraw plant response rating (0 to 10 scale) (bedstraw; Rate 250 g/ha): 0
- Bedstraw plant response rating (bedstraw; [1]): 0
- Blackgrass plant response rating (blackgrass; [2]): 0
- Blackgrass plant response rating (blackgrass; [3]): 0
- Plant response rating, Blackgrass (blackgrass; [4]): 0
- Blackgrass plant response rating (blackgrass; [5]): 0
- Blackgrass plant response rating (blackgrass; [6]): 0
- Blackgrass plant response rating (0 to 10 scale) (blackgrass; Preemergence, Rate 250 g/ha): 2
- Blackgrass plant response rating (blackgrass; [7]): 6
- Plant response rating, Blackgrass (blackgrass; [8]): 0
- B. signalgrass plant response rating (surinam grass; [2]): 0
- B. signalgrass plant response rating (surinam grass; [3]): 0
- Plant response rating, B. signalgrass (surinam grass; [4]): 0
- B. signalgrass plant response rating (surinam grass; [5]): 7
- B. signalgrass plant response rating (surinam grass; [6]): 7
- B. signalgrass plant response rating (0 to 10 scale, 0 is no effect, 10 is complete control) (surinam grass; Preemergence, Rate 250 g/ha): 9
- B. signalgrass plant response rating (surinam grass; [7]): 10
- Plant response rating, B. signalgrass (surinam grass; [8]): 0
- Cocklebur plant response rating (cocklebur; [2]): 0
- Cocklebur plant response rating (cocklebur; [3]): 0
- Plant response rating, Cocklebur (cocklebur; [4]): 3
- Cocklebur plant response rating (cocklebur; [5]): 0
- Cocklebur plant response rating (cocklebur; [6]): 0
- Cocklebur plant response rating (0 to 10 scale) (cocklebur; Preemergence, Rate 250 g/ha): 0
- Cocklebur plant response rating (cocklebur; [7]): 0
- Plant response rating, Cocklebur (cocklebur; [8]): 2
- Corn plant response rating (corn; [2]): 0
- Corn plant response rating (corn; [3]): 0
- Plant response rating, Corn (corn; [4]): 0
- Corn plant response rating (corn; [5]): 0
- Corn plant response rating (corn; [6]): 0
- Corn plant response rating (0 to 10 scale) (corn; Preemergence, Rate 250 g/ha): 0
- Corn plant response rating (corn; [7]): 3
- Plant response rating, Corn (corn; [8]): 0
- Crabgrass plant response rating (crabgrass; [2]): 6
- Crabgrass plant response rating (crabgrass; [3]): 9
- Plant response rating, Crabgrass (crabgrass; [4]): 9
- Crabgrass plant response rating (crabgrass; [5]): 3
- Crabgrass plant response rating (crabgrass; [6]): 9
- Crabgrass plant response rating (0 to 10 scale) (crabgrass; Preemergence, Rate 250 g/ha): 9
- Crabgrass plant response rating (crabgrass; [7]): 10
- Plant response rating, Crabgrass (crabgrass; [8]): 9
- Giant foxtail plant response rating (giant foxtail; [2]): 2
- Giant foxtail plant response rating (giant foxtail; [3]): 3
- Plant response rating, Giant foxtail (giant foxtail; [4]): 9
- Giant foxtail plant response rating (giant foxtail; [5]): 9
- Giant foxtail plant response rating (giant foxtail; [6]): 9
- Giant foxtail plant response rating (0 to 10 scale) (giant foxtail; Preemergence, Rate 250 g/ha): 9
- Giant foxtail plant response rating (giant foxtail; [7]): 10
- Plant response rating, Giant foxtail (giant foxtail; [8]): 9
- Morningglory plant response rating (morningglory; [2]): 10
- Morningglory plant response rating (morningglory; [3]): 10
- Plant response rating, Morningglory (morningglory; [4]): 10
- Morningglory plant response rating (morningglory; [5]): 0
- Morningglory plant response rating (morningglory; [6]): 0
- Morningglory plant response rating (0 to 10 scale) (morningglory; Preemergence, Rate 250 g/ha): 0
- Morningglory plant response rating (morningglory; [7]): 4
- Plant response rating, Morningglory (morningglory; [8]): 10
- Plant response rating, Redroot pigweed (pigweed; [1]): 7
- Redroot pigweed plant response rating (pigweed; [5]): 0
- Redroot pigweed plant response rating (pigweed; [6]): 0
- Redroot pigweed plant response rating (0 to 10 scale) (pigweed; Preemergence, Rate 250 g/ha): 9
- Redroot pigweed plant response rating (pigweed; [7]): 9
- Plant response rating, Redroot pigweed (pigweed; [9]): 4
- Rape plant response rating (rape; [2]): 0
- Rape plant response rating (rape; [3]): 2
- Plant response rating, Rape (rape; [4]): 2
- Rape plant response rating (rape; [5]): 2
- Rape plant response rating (rape; [6]): 2
- Rape plant response rating (0 to 10 scale) (rape; Preemergence, Rate 250 g/ha): 3
- Rape plant response rating (rape; [7]): 3
- Plant response rating, Rape (rape; [8]): 3
- Plant response rating, Soybean (soybean; [1]): 6
- Soybean plant response rating (soybean; [5]): 0
- Soybean plant response rating (soybean; [6]): 0
- Soybean plant response rating (0 to 10 scale) (soybean; Preemergence, Rate 250 g/ha): 0
- Soybean plant response rating (soybean; [7]): 0
- Plant response rating, Soybean (soybean; [9]): 4
- Sugarbeets plant response rating (sugar beet; [5]): 0
- Sugarbeets plant response rating (sugar beet; [6]): 2
- Sugarbeets plant response rating (0 to 10 scale) (sugar beet; Preemergence, Rate 250 g/ha): 2
- Sugarbeets plant response rating (sugar beet; [7]): 2
- Plant response rating, Sugarbeets (sugar beet; [8]): 0
- Plant response rating, Velvetleaf (velvetleaf; [1]): 2
- Velvetleaf plant response rating (velvetleaf; [5]): 0
- Velvetleaf plant response rating (velvetleaf; [6]): 0
- Velvetleaf plant response rating (0 to 10 scale) (velvetleaf; Preemergence, Rate 250 g/ha): 0
- Velvetleaf plant response rating (velvetleaf; [7]): 3
- Plant response rating, Velvetleaf (velvetleaf; [9]): 0
- Plant response rating, Wheat (wheat; [1]): 0
- Wheat plant response rating (wheat; [5]): 0
- Wheat plant response rating (wheat; [6]): 0
- Wheat plant response rating (0 to 10 scale) (wheat; Preemergence, Rate 250 g/ha): 0
- Wheat plant response rating (wheat; [7]): 0
- Plant response rating, Wheat (wheat; [9]): 0
- Plant response rating, Wild oats (wild oat; [1]): 0
- Wild oats plant response rating (wild oat; [5]): 0
- Wild oats plant response rating (wild oat; [6]): 0
- Wild oats plant response rating (0 to 10 scale) (wild oat; Preemergence, Rate 250 g/ha): 0
- Wild oats plant response rating (wild oat; [7]): 0
- Plant response rating, Wild oats (wild oat; [9]): 0
- Nutsedge plant response rating (purple nutsedge; [2]): 0
- Nutsedge plant response rating (purple nutsedge; [3]): 0
- Nutsedge plant response rating (purple nutsedge; [5]): 0
- Nutsedge plant response rating (purple nutsedge; [6]): 0
- Nutsedge plant response rating (0 to 10 scale) (purple nutsedge; Preemergence, Rate 250 g/ha): 0
- Nutsedge plant response rating (purple nutsedge; [7]): 0
- Plant response rating, Nutsedge (purple nutsedge; [8]): 0
